The text below walks through data of publication PMC11956017, “Design of Benzyl-triazolopyrimidine-Based NADPH Oxidase Inhibitors Leads to the Discovery of a Potent Dual Covalent NOX2/MAOB Inhibitor” (Journal of Medicinal Chemistry, 2025).

Some results are limits rather than exact numbers.

Assay [1] concerns dehydrogenase domain of csNOX5. The experiment in a line: NADPH depletion assay on csNOX5 dehydrogenase domain. The class given is biochemical, Cylindrospermum stagnale. Particulars: 10 μM inhibitor; 1 μM purified protein, 250 μM NADPH. The procedure:
A series of derivatives were synthesized and tested at 10 μM against the dehydrogenase domain of NOX5 from Cylindrospermum stagnale (C. stagnale, CsNOX5; Figure 2B).
The NADPH depletion assay for IC50 determinations was performed as described[10] with modifications for covalent inhibitors, which require longer incubation times. Briefly, the catalytic activity was measured by monitoring the absorbance at 340 nm with a Cary 100 UV–vis spectrophotometer (Varian). A 1 μM portion of purified protein was added in a final volume of 130 μL of 50 mM HEPES pH 7.5 and supplemented with 300 μM FAD. Inhibitors were added at varying concentrations and incubated for 1 h at 25 °C.

The next assay concerns the target T1, human NOX1 (Homo sapiens, UniProt Q9Y5S8).
T1 construct: expressed in transfected cells; host or cells: HEK293 F cells, transient transfection (pEG BacMam vector); isolated membranes; Cytosolic proteins made in E. coli
T1 sequence (Q9Y5S8 1-564): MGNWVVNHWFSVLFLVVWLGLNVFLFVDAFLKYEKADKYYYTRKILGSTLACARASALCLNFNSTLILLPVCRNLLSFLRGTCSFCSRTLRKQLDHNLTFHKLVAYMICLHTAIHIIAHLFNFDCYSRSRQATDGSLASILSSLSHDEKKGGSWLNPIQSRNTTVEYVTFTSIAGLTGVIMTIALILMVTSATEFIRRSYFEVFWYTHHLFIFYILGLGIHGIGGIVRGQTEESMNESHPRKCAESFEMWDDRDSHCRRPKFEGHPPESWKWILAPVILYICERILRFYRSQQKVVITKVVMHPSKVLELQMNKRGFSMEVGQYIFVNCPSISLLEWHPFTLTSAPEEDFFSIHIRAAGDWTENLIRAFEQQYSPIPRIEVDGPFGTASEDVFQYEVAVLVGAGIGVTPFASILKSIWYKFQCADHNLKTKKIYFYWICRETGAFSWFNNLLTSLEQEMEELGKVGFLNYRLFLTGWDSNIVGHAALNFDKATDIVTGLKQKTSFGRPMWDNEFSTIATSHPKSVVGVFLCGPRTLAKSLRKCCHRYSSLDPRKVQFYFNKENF
T1 sequence (P13498 1-195 partner): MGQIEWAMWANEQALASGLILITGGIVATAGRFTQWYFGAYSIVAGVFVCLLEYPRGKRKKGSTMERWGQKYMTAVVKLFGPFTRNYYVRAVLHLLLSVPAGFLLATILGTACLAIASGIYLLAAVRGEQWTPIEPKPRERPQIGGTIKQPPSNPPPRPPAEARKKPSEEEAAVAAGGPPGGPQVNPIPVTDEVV
The experiment in a line: Human NOX1 isolated membranes, Amplex Red/horseradish peroxidase coupled assay. The format is biochemical. The conditions noted are these: membrane-embedded; 40 μM NADPH; read-out: IC50 on human NOXs, NOX1 (AMPLEX RED). The protocol:
(§1) Activity assays for IC50 determinations were performed as previously described[40],[42] with modifications for covalent inhibitors. […] The estimated final protein concentrations based on the heme’s absorbance (ε414 nm = 131,000 M^–1 cm^–1) were 10–20 nM. Compounds were incubated for 1 h at 25 °C at varying concentrations, and reactions were initiated with 40 μM NADPH. Fluorescence was measured using a ClarioStar plate reader (excitation 572 nm/emission 583 nm).

The next assay deals with T2, human NOX5 (Homo sapiens, UniProt Q96PH1).
T2 construct: expressed in transfected cells; host or cells: HEK293 F cells, transient transfection (pEG BacMam vector); isolated membranes
T2 sequence (Q96PH1 1-719 isoform Q96PH1-4): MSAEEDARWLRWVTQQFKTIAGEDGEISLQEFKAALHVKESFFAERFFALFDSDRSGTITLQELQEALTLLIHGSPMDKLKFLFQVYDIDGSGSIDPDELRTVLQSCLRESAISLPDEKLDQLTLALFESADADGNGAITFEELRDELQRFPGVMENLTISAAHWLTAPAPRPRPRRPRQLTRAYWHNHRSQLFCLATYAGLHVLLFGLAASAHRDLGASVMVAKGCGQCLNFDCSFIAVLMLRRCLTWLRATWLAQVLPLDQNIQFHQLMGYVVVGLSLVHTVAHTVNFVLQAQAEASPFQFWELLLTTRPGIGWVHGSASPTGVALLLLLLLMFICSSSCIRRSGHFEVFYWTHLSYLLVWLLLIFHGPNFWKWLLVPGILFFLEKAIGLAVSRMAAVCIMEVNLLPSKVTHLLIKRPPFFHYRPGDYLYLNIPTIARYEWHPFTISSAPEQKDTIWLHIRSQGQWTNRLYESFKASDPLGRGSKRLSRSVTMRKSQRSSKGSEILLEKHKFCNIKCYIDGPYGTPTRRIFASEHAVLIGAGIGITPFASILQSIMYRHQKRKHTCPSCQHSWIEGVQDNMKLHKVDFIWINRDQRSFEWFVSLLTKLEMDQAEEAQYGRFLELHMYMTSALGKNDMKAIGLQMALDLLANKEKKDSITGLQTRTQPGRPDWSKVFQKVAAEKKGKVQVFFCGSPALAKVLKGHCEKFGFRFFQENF
The experiment in a line: Human NOX5 isolated membranes, Amplex Red/horseradish peroxidase coupled assay. The format is biochemical. Particulars: membrane-embedded; 40 μM NADPH; read-out: IC50 on human NOXs, NOX5 (AMPLEX RED). The protocol:
as §1

Another assay concerns the target T3, human NOX4 (Homo sapiens, UniProt Q9NPH5).
T3 construct: expressed in transfected cells; host or cells: HEK293 F cells, transient transfection (pTT22 and pYD7 vectors); isolated membranes
T3 sequence (Q9NPH5 1-578): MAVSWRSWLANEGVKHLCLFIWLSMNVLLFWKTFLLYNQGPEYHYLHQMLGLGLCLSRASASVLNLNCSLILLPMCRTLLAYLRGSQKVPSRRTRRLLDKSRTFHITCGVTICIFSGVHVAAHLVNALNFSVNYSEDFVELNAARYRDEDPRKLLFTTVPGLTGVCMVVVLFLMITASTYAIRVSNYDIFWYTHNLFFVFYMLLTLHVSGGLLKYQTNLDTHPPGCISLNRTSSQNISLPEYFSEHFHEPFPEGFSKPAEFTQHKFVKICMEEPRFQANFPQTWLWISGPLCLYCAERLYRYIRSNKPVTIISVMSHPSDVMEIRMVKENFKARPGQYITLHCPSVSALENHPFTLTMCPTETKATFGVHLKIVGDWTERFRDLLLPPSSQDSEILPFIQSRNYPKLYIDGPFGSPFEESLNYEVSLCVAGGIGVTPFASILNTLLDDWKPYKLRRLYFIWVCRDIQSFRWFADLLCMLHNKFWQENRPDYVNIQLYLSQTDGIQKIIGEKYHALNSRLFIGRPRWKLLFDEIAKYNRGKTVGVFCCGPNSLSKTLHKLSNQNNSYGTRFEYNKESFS
T3 sequence (P13498 1-195 partner): T1 sequence (P13498 1-195 partner)
Kind of assay: Human NOX4 isolated membranes, Amplex Red/horseradish peroxidase coupled assay. The format is biochemical. Particulars: membrane-embedded; 40 μM NADPH; read-out: IC50 on human NOXs, NOX4 (AMPLEX RED). The protocol:
as §1

Another assay has as its target NOX2 (Homo sapiens, UniProt P04839). Kind of assay: Human NOX2 isolated membranes, MCLA assay. The format is biochemical. More on the design: NOX2 was expressed as native protein in X-CGD PLB-985 cells transduced with the RD114 pseudotyped MFGS-NOX2 vector; expressed in transfected cells; host or cells: X-CGD PLB-985 cells transduced with MFGS-NOX2; isolated membranes; Cytosolic proteins made in E. coli. The conditions noted are these: membrane-embedded; 240 μM NADPH; read-out: IC50 on human NOXs, NOX2 (MCLA). The protocol: IC50 determinations were performed as described, with the same aforementioned modifications for covalent inhibition. Briefly, 20 μg of NOX2-p22^phox membranes was added to a reaction mix with a 65 mM sodium phosphate buffer (pH 7.0), 0.5 μM FAD, 130 μM LiDS, 160 nM p67^phox, p47^phox, Rac1 Q61L, and 1 μM MCLA or 200 μM bovine cytochrome c. The estimated final protein concentration based on the heme’s absorbance was 60 nM. Compounds were incubated for 1 h at 25 °C, at varying concentrations. The reaction started by adding 240 μM NADPH, and measurements were taken by using a GloMax plate reader (Promega; MCLA) or a Cary 100 UV–vis spectrophotometer (Varian; cytochrome c).

Take `Oc1ncnc2c1nnn2Cc1ccccc1` [Compound 1, 3-benzyl-3H-[1,2,3]triazolo[4,5-d]pyrimidin-7-ol]: the “% INHIBITION csNOX5 DEHYDROGENASE DOMAIN” value in assay [1] turned out to be 0%.
For the compound `CN(Cc1ccccc1)Cc1ccc(Cn2nnc3c(Sc4nc5ccccc5o4)ncnc32)cc1` [Compound 9c, N-(4-((7-(Benzo[d]oxazol-2-ylthio)-3H-[1,2,3]triazolo[4,5-d]pyrimidin-3-yl)methyl)benzyl)-N-methyl-1-phenylmethanamine], the IC50 at human NOX1 is over 100 µM; at human NOX5 it was 14.3 ± 5.9 µM; at human NOX4, over 100 µM; on NOX2, 12.9 ± 2.2 µM.
Turning to `Nc1ncnc2c1nnn2Cc1ccccc1` [Compound 4, 3-Benzyl-3H-[1,2,3]triazolo[4,5-d]pirimidin-7-amina], the “% INHIBITION csNOX5 DEHYDROGENASE DOMAIN” value in assay [1] is 28.0 ± 9.2%.
`CCCN(C)Cc1ccc(Cn2nnc3c(Sc4nc5ccccc5o4)ncnc32)cc1` [Compound 9b, N-(4-((7-(Benzo[d]oxazol-2-ylthio)-3H-[1,2,3]triazolo[4,5-d]pyrimidin-3-yl)methyl)benzyl)-N-methylpropan-1-amine]: the IC50 at human NOX1, on human NOX5, on human NOX4 and at NOX2 was over 100 µM each time.
Consider `C=CC(=O)N1CCN(c2ncnc3c2nnn3Cc2ccccc2)CC1` [Compound 7a, 1-(4-(3-Benzyl-3H-[1,2,3]triazolo[4,5-d]pyrimidin-7-yl)piperazin-1-yl)prop-2-en-1-one], for which the “% INHIBITION csNOX5 DEHYDROGENASE DOMAIN” value in assay [1] turned out to be 12.0 ± 3.0%.
On to `c1ccc2oc(Sc3ncnc4c3nnn4Cc3ccc(CN4CCCCC4)cc3)nc2c1` [Compound 9d, 2-((3-(4-(Piperidin-1-ylmethyl)benzyl)-3H-[1,2,3]triazolo[4,5-d]pyrimidin-7-yl)thio)benzo[d]oxazole], for which the IC50 on human NOX1 is over 100 µM; at human NOX5, 4.72 ± 3.7 µM; on human NOX4, over 100 µM; at NOX2 it was 8.1 ± 0.2 µM.
For the compound `FC1(F)CC2(CCN(Cc3ccc(Cn4nnc5c(Sc6nc7ccccc7o6)ncnc54)cc3)CC2)C1` [Compound 9f, 2-((3-(4-((2,2-Difluoro-7-azaspiro[3.5]nonan-7-yl)methyl)benzyl)-3H-[1,2,3]triazolo[4,5-d]pyrimidin-7-yl)thio)benzo[d]oxazole], the IC50 at human NOX1 was over 100 µM; at human NOX5 it was 46.6 ± 9.1 µM; on human NOX4, over 100 µM; on NOX2, 13.8 ± 2.8 µM.
As for `CS(=O)(=O)Oc1ncnc2c1nnn2Cc1ccccc1` [Compound 2], the “% INHIBITION csNOX5 DEHYDROGENASE DOMAIN” value in assay [1] was found to be 15.1 ± 2.5%.
As to `CC(=O)N1CCN(c2ncnc3c2nnn3Cc2ccccc2)CC1` [Compound 7b, 1-(4-(3-Benzyl-3H-[1,2,3]triazolo[4,5-d]pyrimidin-7-yl)piperazin-1-yl)etan-1-one], the “% INHIBITION csNOX5 DEHYDROGENASE DOMAIN” value in assay [1] worked out at 40.5 ± 14.8%.
As to `c1ccc2oc(Sc3ncnc4c3nnn4Cc3ccc(CN4CCOCC4)cc3)nc2c1` [Compound 9e, 2-((3-(4-(Morpholinomethyl)benzyl)-3H-[1,2,3]triazolo[4,5-d]pyrimidin-7-yl)thio)benzo[d]oxazole], the concentration for half-maximal inhibition (IC50) is over 100 µM on human NOX1, 2.06 ± 0.96 µM on human NOX5, over 100 µM on human NOX4 and 1.9 ± 0.2 µM on NOX2.
Consider `CC(C)(C)OC(=O)N1CCN(c2ncnc3c2nnn3Cc2ccccc2)CC1` [Compound 5, tert-Butyl 4-(3-benzyl-3H-[1,2,3]triazolo[4,5-d]pyrimidin-7-yl)piperazine-1-carboxylate], for which the “% INHIBITION csNOX5 DEHYDROGENASE DOMAIN” value in assay [1] is listed as 16.9 ± 8.2%.
For the compound `C=CC(=O)Nc1ccc(Sc2ncnc3c2nnn3Cc2ccccc2)cc1` [Compound 7d, N-(4-((3-Benzyl-3H-[1,2,3]triazolo[4,5-d]pyrimidin-7-yl)thio)phenyl)acrylamide], in assay [1], the “% INHIBITION csNOX5 DEHYDROGENASE DOMAIN” value was 28.1 ± 2.8%.
Take `Cl.c1ccc(Cn2nnc3c(N4CCNCC4)ncnc32)cc1` [Compound 6, 3-Benzyl-7-(piperazin-1-yl)-3H-[1,2,3]triazolo[4,5-d]pyrimidine Hydrochloride]: in assay [1], the “% INHIBITION csNOX5 DEHYDROGENASE DOMAIN” value came to 7.0 ± 3.2%.

One may read the IC50 as the midpoint of a concentration-inhibition curve.
